Laboratory results reported in US9187491B2, “Gambogenic acid derivatives, preparation method and application thereof” (Ninth People's Hospital, School Medicine Shanghai Jiao Tong …, priority 2012, dated 2015).
Read-outs that look alike come from different tables or passages of the source.

How the values were obtained:
[1] = test system: Human oral squamous cells carcinoma Cal27; experiment: growth inhibition of tumor cell Cal27 (SRB staining); assay type: cell-based; conditions: for efficacy: Cal27, assessment of results; for inhibition at 100 µM / inhibition at 10 µM / inhibition at 1 µM / inhibition at 0.1 µM / inhibition at 0.01 µM: Homo sapiens, read-out: growth inhibition rate
From the text: (§1) The compounds synthesized from the present invention were studied by sulforhodamine B protein staining (sulfothodalnine B, SRB) and miceroculture tetrazolinetetrozohuln (MTT) colorimetric method respectively for in vitro anti-tumor activity (Cancer Res., 1988, 48 (3): 589).
(§2) The concentration gradient of the test compounds of the present invention is 10^−4M, 10^−5M, 10^−6M, 10^−7M, 10^−8M, and the test compounds are 6-methoxy methyl ester gambogenic acid, ethyl ester gambogenic acid, 6-ethoxy ethyl ester gambogenic acid, 6-acyl gambogenic acid, piperidine gambogenic acid, diethylamide gambogenic acyl, morpholine gambogenic acid, and 12-hydroxy gambogenic acid, and 8,9-epoxy gambogenic acid. The test compounds and positive control gambogenic acid were diluted with dimethyl sulfoxide. Inhibition rate(%)=[(control group OD value−administered group OD value)/control group OD value]×100%
Human oral squamous cells carcinoma Cal27 were cultured in DMEM containing 10% fetal bovine serum (FBS), the cells with long-growth phase were forming suspension and culturing in 96-well plates. 10 μl test compounds of different concentrations as experimental group were added into each well of the 96-well plates. Blank control group received an equal volume containing the highest concentration of solvent (ie, 10^−4M dimethyl sulfoxide) in DMEM. After incubation at 37° C. under 5% carbon dioxide conditions for 72 hours, the cells were fixed with trichloroacetic acid, and each well was added with 100 μl SRB solution, unbound SRB was washed away, and then OD values were measured at 550 nm by an automatic plate reader spectrophotometer. A tumor cell group without drugs is a blank control group.

[2] = test system: Human breast cancer cells MCF-7; experiment: growth inhibition of tumor cell MCF-7 (MTT colorimetric method); assay type: cell-based; conditions: for efficacy: MCF-7, assessment of results; for inhibition at 100 µM / inhibition at 10 µM / inhibition at 1 µM / inhibition at 0.1 µM / inhibition at 0.01 µM: Homo sapiens, read-out: growth inhibition rate
From the text: as §1, §2
Human breast cancer cells MCF-7 were cultured in DMEM containing 10% FBS, the cell with long-growth phase was formed into suspension and cultured in 96-well plates. The test compounds as experimental group with different concentrations were added into each well of the 96-well plates. Blank control group received an equal volume containing the highest concentration of solvent (ie, 10^−4M dimethyl sulfoxide) in DMEM. After incubation at 37° C. under 5% carbon dioxide conditions for 72 hours, each well was added with MTT to 1 mg/ml final concentration for incubation for 4 hours. The supernatant solution in each well was aspirated and added with 200 μl DMSO to dissolve crystals, and then OD values were measured at 490 nm by an automatic plate reader spectrophotometer. A tumor cell group without drugs is a blank control group.

[3] = test system: mouse leukemia L1210; conditions: compared with garcinia acid; cited from earlier work
[4] = CAL-27, Cal27, 10^−4M, 72 hours, SRB
[5] = CAL-27, Cal27, 10^−5M, 72 hours, SRB
[6] = CAL-27, Cal27, 10^−6M, 72 hours, SRB
[7] = CAL-27, Cal27, 10^−7M, 72 hours, SRB
[8] = CAL-27, Cal27, 10^−8M, 72 hours, SRB
[9] = MCF7, MCF-7, 10^−4M, 72 hours, MTT
[10] = MCF7, MCF-7, 10^−5M, 72 hours, MTT
[11] = MCF7, MCF-7, 10^−6M, 72 hours, MTT
[12] = MCF7, MCF-7, 10^−7M, 72 hours, MTT
[13] = MCF7, MCF-7, 10^−8M, 72 hours, MTT

Compound	growth inhibition rate ([1]; Cal27, 10^−4M, 72 hours, SRB) [%]	growth inhibition rate ([1]; Cal27, 10^−5M, 72 hours, SRB) [%]	growth inhibition rate ([1]; Cal27, 10^−6M, 72 hours, SRB) [%]	growth inhibition rate ([1]; Cal27, 10^−7M, 72 hours, SRB) [%]	growth inhibition rate ([1]; Cal27, 10^−8M, 72 hours, SRB) [%]	efficacy [1]	growth inhibition rate ([2]; MCF-7, 10^−4M, 72 hours, MTT) [%]	growth inhibition rate ([2]; MCF-7, 10^−5M, 72 hours, MTT) [%]	growth inhibition rate ([2]; MCF-7, 10^−6M, 72 hours, MTT) [%]	growth inhibition rate ([2]; MCF-7, 10^−7M, 72 hours, MTT) [%]	growth inhibition rate ([2]; MCF-7, 10^−8M, 72 hours, MTT) [%]	efficacy [2]	further results
6-acyl gambogenic acid	100	100	96	0	0	potent (Potent: 10^−6M inhibition rate≧75% or 10^−7M inhibition rate>50%)	100	100	83	0	0	potent (Potent: 10^−6M inhibition rate≧75% or 10^−7M inhibition rate>50%)	–
CCOC(=O)/C(C)=C\CC12OC(C)(C)C3CC(C=C4C(=O)c5c(OCC)c(C/C=C(\C)CCC=C(C)C)c(O)c(CC=C(C)C)c5OC431)C2=O (stereo not shown) [6-ethoxy ethyl ester gambogenic acid, 6-ethoxyl gambogenic acid ethyl ester]	100	100	94	0	0	potent (Potent: 10^−6M inhibition rate≧75% or 10^−7M inhibition rate>50%)	100	100	86	0	0	potent (Potent: 10^−6M inhibition rate≧75% or 10^−7M inhibition rate>50%)	–
COC(=O)/C(C)=C\CC12OC(C)(C)C3CC(C=C4C(=O)c5c(OC)c(C/C=C(\C)CCC=C(C)C)c(O)c(CC=C(C)C)c5OC431)C2=O (stereo not shown) [6-methoxy methyl ester gambogenic acid]	100	100	100	0	0	potent (Potent: 10^−6M inhibition rate≧75% or 10^−7M inhibition rate>50%)	100	100	80	0	0	potent (Potent: 10^−6M inhibition rate≧75% or 10^−7M inhibition rate>50%)	–
CC(C)=CCC/C(C)=C/Cc1c(O)c(CC=C(C)C)c2c(c1O)C(=O)C13OC1C1CC4C(C)(C)OC(C/C=C(\C)C(=O)O)(CC1=O)C43O2 (stereo not shown) [8,9-epoxy gambogenic acid]	–	–	–	–	–	potent (Potent: 10^−6M inhibition rate≧75% or 10^−7M inhibition rate>50%)	–	–	–	–	–	potent (Potent: 10^−6M inhibition rate≧75% or 10^−7M inhibition rate>50%)	inhibition at 100 µM [1, 4]: 100%; inhibition at 10 µM [1, 5]: 100%; inhibition at 1 µM [1, 6]: 100%; inhibition at 0.1 µM [1, 7]: 0%; inhibition at 0.01 µM [1, 8]: 0%; inhibition at 100 µM [2, 9]: 100%; inhibition at 10 µM [2, 10]: 100%; inhibition at 1 µM [2, 11]: 80%; inhibition at 0.1 µM [2, 12]: 0%; inhibition at 0.01 µM [2, 13]: 0%
CC(C)=CCC/C(C)=C/Cc1c(O)c(CC=C(C)C)c2c(c1O)C(=O)C1=CC3CC4C(C)(C)OC(C/C=C(\C)C(=O)O)(CC3O)C14O2 (stereo not shown) [12-hydroxy gambogenic acid]	–	–	–	–	–	potent (Potent: 10^−6M inhibition rate≧75% or 10^−7M inhibition rate>50%)	–	–	–	–	–	potent (Potent: 10^−6M inhibition rate≧75% or 10^−7M inhibition rate>50%)	inhibition at 100 µM [1, 4]: 100%; inhibition at 10 µM [1, 5]: 100%; inhibition at 1 µM [1, 6]: 100%; inhibition at 0.1 µM [1, 7]: 0%; inhibition at 0.01 µM [1, 8]: 0%; inhibition at 100 µM [2, 9]: 100%; inhibition at 10 µM [2, 10]: 100%; inhibition at 1 µM [2, 11]: 82%; inhibition at 0.1 µM [2, 12]: 0%; inhibition at 0.01 µM [2, 13]: 0%
CCN(CC)C(=O)/C(C)=C\CC12OC(C)(C)C3CC(C=C4C(=O)c5c(O)c(C/C=C(\C)CCC=C(C)C)c(O)c(CC=C(C)C)c5OC431)C2=O (stereo not shown) [diethylamide gambogenic acyl]	100	100	100	23	0	potent (Potent: 10^−6M inhibition rate≧75% or 10^−7M inhibition rate>50%)	100	100	84	0	0	potent (Potent: 10^−6M inhibition rate≧75% or 10^−7M inhibition rate>50%)	–
CCOC(=O)/C(C)=C\CC12OC(C)(C)C3CC(C=C4C(=O)c5c(O)c(C/C=C(\C)CCC=C(C)C)c(O)c(CC=C(C)C)c5OC431)C2=O (stereo not shown) [ethyl ester gambogenic acid]	100	100	98	0	0	potent (Potent: 10^−6M inhibition rate≧75% or 10^−7M inhibition rate>50%)	100	100	96	0	0	potent (Potent: 10^−6M inhibition rate≧75% or 10^−7M inhibition rate>50%)	–
CC(C)=CCC/C(C)=C/Cc1c(O)c(CC=C(C)C)c2c(c1O)C(=O)C1=CC3CC4C(C)(C)OC(C/C=C(/C)C(=O)O)(C3=O)C14O2 (stereo not shown) [gambogenic acid, Gambogenic acid]	–	–	–	–	–	invalid (Invalid: 10^−5M inhibition rate<85%)	–	–	–	–	–	invalid (Invalid: 10^−5M inhibition rate<85%)	inhibition at 0.01 µM ([1]; CAL-27, 72 h): 0%; inhibition at 0.1 µM ([1]; CAL-27, 72 h): 0%; inhibition at 1 µM ([1]; CAL-27, 72 h): 5%; inhibition at 10 µM ([1]; CAL-27, 72 h): 100%; inhibition at 100 µM ([1]; CAL-27, 72 h): 100%; highest survival rate extended, relative to garcinia acid [3]: up to 2.45 times; inhibition at 0.01 µM ([2]; MCF7, 72 h): 0%; inhibition at 0.1 µM ([2]; MCF7, 72 h): 0%; inhibition at 1 µM ([2]; MCF7, 72 h): 0%; inhibition at 10 µM ([2]; MCF7, 72 h): 100%; inhibition at 100 µM ([2]; MCF7, 72 h): 100%
CC(C)=CCC/C(C)=C/Cc1c(O)c(CC=C(C)C)c2c(c1O)C(=O)C1=CC3CC4C(C)(C)OC(C/C=C(/C)C(=O)N5CCOCC5)(C3=O)C14O2 (stereo not shown) [morpholine gambogenic acid]	100	100	100	14	0	potent (Potent: 10^−6M inhibition rate≧75% or 10^−7M inhibition rate>50%)	100	100	78	14	0	potent (Potent: 10^−6M inhibition rate≧75% or 10^−7M inhibition rate>50%)	–
CC(C)=CCC/C(C)=C/Cc1c(O)c(CC=C(C)C)c2c(c1O)C(=O)C1=CC3CC4C(C)(C)OC(C/C=C(/C)C(=O)N5CCCCC5)(C3=O)C14O2 (stereo not shown) [piperidine gambogenic acid]	100	100	70	0	0	invalid (Invalid: 10^−5M inhibition rate<85%)	100	100	67	0	0	invalid (Invalid: 10^−5M inhibition rate<85%)	–
